Values joined by “and” are separate entries in the source; they are usually repeats but may differ in a detail not shown here. Identical values can stand only once. Like-named read-outs stand apart in the source and are kept apart here.
Molecular target: T1, MRGPRX4 + RAMP1 (Homo sapiens, UniProt Q96LA9)
T1 construct: expressed in transfected cells; host or cells: HEK293T
Experiment: IP1 accumulation, MRGPRX4 coexpressed with RAMP1
Type: cell-based
Settings: for activation at 100 µM / activation at 20 µM / activation at 4 µM / activation at 0.8 µM / activation at […] / activation at 0.032 µM: 2 h; for Emax: Figure 4a bottom, MRGPRX4 alone = 100, read-out: efficacy
Description: HEK293T cells were transfected with 1 pg/cell of MRGPRX4 DNA, and the amount of DNA was kept constant at 2 pg/cell with pcDNA3.1(+) empty vector, unless otherwise specified. Twenty four hours after transfection, IP1 assay was performed as previously described ([51]). When applicable, cells were treated with 1 μM YM254890 (YM) or different concentrations of U73122 for 1 h prior to addition of agonist or buffer. After incubation for 2 h, HTRF reagents and IP1 calibration standards were added and incubated for 2 h in the dark at room temperature. Time-resolved fluorescence signals were read on the BioTek Synergy NEO-TRF Hybrid multi-mode reader (BioTek Instruments). All data were carried out in three independent experiments with three technical replicate each.
For a homogenous transfection of MRGPRX4, a master mix of MRGPRX4 DNA was made prior to addition of the RAMP DNA. […]
Data reduction, standard calibration, and transformation of HTRF data were performed as previously described ([51]). Normalized IP1 values were calculated relative to the unstimulated mock-transfected cells (set to 0%) and fully stimulated MRGPRX4 (alone if applicable) (set to 100%).

T1 sequence (Q96LA9 whole entry): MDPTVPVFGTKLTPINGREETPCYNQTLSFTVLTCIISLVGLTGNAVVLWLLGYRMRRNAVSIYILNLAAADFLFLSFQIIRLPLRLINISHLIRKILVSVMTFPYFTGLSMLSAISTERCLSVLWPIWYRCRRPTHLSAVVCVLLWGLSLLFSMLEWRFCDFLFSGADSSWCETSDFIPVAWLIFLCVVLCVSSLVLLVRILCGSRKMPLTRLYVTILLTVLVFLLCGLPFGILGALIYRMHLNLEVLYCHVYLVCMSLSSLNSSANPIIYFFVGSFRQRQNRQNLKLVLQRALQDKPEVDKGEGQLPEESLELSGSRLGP

Q: Which activation at 100 µM (log [nateglinide] (M) -4, MRGPRX4+RAMP10.5pg 1:0.5, Supplementary Figure 5d, read-out: IP1 accumulation (normalized)) does the source give for CC(C)[C@H]1CC[C@H](C(=O)N[C@H](Cc2ccccc2)C(=O)O)CC1 [Nateglinide] here?
A: 99.2%

Q: What about the activation at 20 µM (log [nateglinide] (M) -4.69897, MRGPRX4+RAMP10.5pg 1:0.5, Supplementary Figure 5d, read-out: IP1 accumulation (normalized)) of the same compound?
A: 78.1%

Q: What about the activation at 20 µM (log [nateglinide] (M) -4.69897, MRGPRX4+RAMP1 0.75pg 1:0.75, Supplementary Figure 5d, read-out: IP1 accumulation (normalized)) of the same compound?
A: 84.8%

Q: What about the activation at 20 µM (log [nateglinide] (M) -4.69897, MRGPRX4+RAMP1 1pg 1:1, Supplementary Figure 5d, 5g, read-out: IP1 accumulation (normalized)) of the same compound?
A: 72.1%

Q: What about the activation at 4 µM (log [nateglinide] (M) -5.39794, MRGPRX4+RAMP10.5pg 1:0.5, Supplementary Figure 5d, read-out: IP1 accumulation (normalized)) of the same compound?
A: 49.7%

Q: And the activation at 4 µM (log [nateglinide] (M) -5.39794, MRGPRX4+RAMP1 0.75pg 1:0.75, Supplementary Figure 5d, read-out: IP1 accumulation (normalized))?
A: 44.1%

Q: What about the activation at 4 µM (log [nateglinide] (M) -5.39794, MRGPRX4+RAMP1 1pg 1:1, Supplementary Figure 5d, 5g, read-out: IP1 accumulation (normalized)) of the same compound?
A: 39.2%

Q: What about the activation at 0.8 µM (log [nateglinide] (M) -6.09691, MRGPRX4+RAMP10.5pg 1:0.5, Supplementary Figure 5d, read-out: IP1 accumulation (normalized)) of the same compound?
A: 18.6%

Q: What about the activation at 0.8 µM (log [nateglinide] (M) -6.09691, MRGPRX4+RAMP1 0.75pg 1:0.75, Supplementary Figure 5d, read-out: IP1 accumulation (normalized)) of the same compound?
A: 14.6%

Q: And the activation at 0.8 µM (log [nateglinide] (M) -6.09691, MRGPRX4+RAMP1 1pg 1:1, Supplementary Figure 5d, 5g, read-out: IP1 accumulation (normalized))?
A: 12.9%

Q: What about the activation at […] (log [nateglinide] (M) -6.79588, MRGPRX4+RAMP10.5pg 1:0.5, Supplementary Figure 5d, read-out: IP1 accumulation (normalized)) of the same compound?
A: 8.57%

Q: And the activation at […] (log [nateglinide] (M) -6.79588, MRGPRX4+RAMP1 0.75pg 1:0.75, Supplementary Figure 5d, read-out: IP1 accumulation (normalized))?
A: 11.2%

Q: And the activation at 0.032 µM (log [nateglinide] (M) -7.49485, MRGPRX4+RAMP10.5pg 1:0.5, Supplementary Figure 5d, read-out: IP1 accumulation (normalized))?
A: 7.92%

Q: And the activation at 0.032 µM (log [nateglinide] (M) -7.49485, MRGPRX4+RAMP1 0.75pg 1:0.75, Supplementary Figure 5d, read-out: IP1 accumulation (normalized))?
A: 8.7%

Q: What about the activation at 0.032 µM (log [nateglinide] (M) -7.49485, MRGPRX4+RAMP1 1pg 1:1, Supplementary Figure 5d, 5g, read-out: IP1 accumulation (normalized)) of the same compound?
A: 7.65%

Q: What about the activation at 100 µM (ratio MRGPRX4:RAMP1 1:0.25, log [Nateglinide] (M) -4, Fig S3a, read-out: IP1 accumulation) of the same compound?
A: 102%

Q: And the activation at 20 µM (ratio MRGPRX4:RAMP1 1:0.25, log [Nateglinide] (M) -4.69897, Fig S3a, read-out: IP1 accumulation)?
A: 76.7%

Q: And the activation at 4 µM (ratio MRGPRX4:RAMP1 1:0.25, log [Nateglinide] (M) -5.39794, Fig S3a, read-out: IP1 accumulation)?
A: 42.2%

Q: What about the activation at 0.8 µM (ratio MRGPRX4:RAMP1 1:0.25, log [Nateglinide] (M) -6.09691, Fig S3a, read-out: IP1 accumulation) of the same compound?
A: 29.4%

Q: What about the activation at […] (ratio MRGPRX4:RAMP1 1:0.25, log [Nateglinide] (M) -6.79588, Fig S3a, read-out: IP1 accumulation) of the same compound?
A: 26.1%

Q: And the activation at 0.032 µM (ratio MRGPRX4:RAMP1 1:0.25, log [Nateglinide] (M) -7.49485, Fig S3a, read-out: IP1 accumulation)?
A: 24%

Q: And the activation at 100 µM (ratio MRGPRX4:RAMP1 1:1, log [Nateglinide] (M) -4, Fig S3a, read-out: IP1 accumulation)?
A: 114%

Q: And the activation at 20 µM (ratio MRGPRX4:RAMP1 1:1, log [Nateglinide] (M) -4.69897, Fig S3a, read-out: IP1 accumulation)?
A: 87.9%

Q: And the activation at 4 µM (ratio MRGPRX4:RAMP1 1:1, log [Nateglinide] (M) -5.39794, Fig S3a, read-out: IP1 accumulation)?
A: 43.7%

Q: And the activation at 0.8 µM (ratio MRGPRX4:RAMP1 1:1, log [Nateglinide] (M) -6.09691, Fig S3a, read-out: IP1 accumulation)?
A: 22.8%

Q: And the activation at […] (ratio MRGPRX4:RAMP1 1:1, log [Nateglinide] (M) -6.79588, Fig S3a, read-out: IP1 accumulation)?
A: 17.6%

Q: And the activation at 0.032 µM (ratio MRGPRX4:RAMP1 1:1, log [Nateglinide] (M) -7.49485, Fig S3a, read-out: IP1 accumulation)?
A: 16%

Q: And the activation at 100 µM (ratio MRGPRX4:RAMP1 1:2, log [Nateglinide] (M) -4, Fig S3a, read-out: IP1 accumulation)?
A: 117%

Q: What about the activation at 20 µM (ratio MRGPRX4:RAMP1 1:2, log [Nateglinide] (M) -4.69897, Fig S3a, read-out: IP1 accumulation) of the same compound?
A: 93.3%

Q: And the activation at 4 µM (ratio MRGPRX4:RAMP1 1:2, log [Nateglinide] (M) -5.39794, Fig S3a, read-out: IP1 accumulation)?
A: 44.8%

Q: What about the activation at 0.8 µM (ratio MRGPRX4:RAMP1 1:2, log [Nateglinide] (M) -6.09691, Fig S3a, read-out: IP1 accumulation) of the same compound?
A: 18.6%

Q: And the activation at […] (ratio MRGPRX4:RAMP1 1:2, log [Nateglinide] (M) -6.79588, Fig S3a, read-out: IP1 accumulation)?
A: 14.5%

Q: And the activation at 0.032 µM (ratio MRGPRX4:RAMP1 1:2, log [Nateglinide] (M) -7.49485, Fig S3a, read-out: IP1 accumulation)?
A: 12.5%

Q: And the activation at 100 µM (ratio MRGPRX4:RAMP 1:0.5, log [Nateglinide] (M) -4, Fig S3a, read-out: IP1 accumulation)?
A: 113%

Q: What about the activation at 20 µM (ratio MRGPRX4:RAMP 1:0.5, log [Nateglinide] (M) -4.69897, Fig S3a, read-out: IP1 accumulation) of the same compound?
A: 93.7%

Q: What about the activation at 4 µM (ratio MRGPRX4:RAMP 1:0.5, log [Nateglinide] (M) -5.39794, Fig S3a, read-out: IP1 accumulation) of the same compound?
A: 46.5%

Q: What about the activation at 0.8 µM (ratio MRGPRX4:RAMP 1:0.5, log [Nateglinide] (M) -6.09691, Fig S3a, read-out: IP1 accumulation) of the same compound?
A: 24.4%

Q: What about the activation at […] (ratio MRGPRX4:RAMP 1:0.5, log [Nateglinide] (M) -6.79588, Fig S3a, read-out: IP1 accumulation) of the same compound?
A: 18.5%

Q: And the activation at 0.032 µM (ratio MRGPRX4:RAMP 1:0.5, log [Nateglinide] (M) -7.49485, Fig S3a, read-out: IP1 accumulation)?
A: 18.7%

Q: And the Emax (DNA ratio MRGPRX4:RAMP1 1:0.25)?
A: 109%

Q: What about the Emax (DNA ratio MRGPRX4:RAMP1 1:0.5) of the same compound?
A: 115%

Q: And the Emax (DNA ratio MRGPRX4:RAMP1 1:0.75)?
A: 118%

Q: What about the Emax (DNA ratio MRGPRX4:RAMP1 1:1) of the same compound?
A: 126%

Q: And the EC50 (Figure 4a top, DNA ratio MRGPRX4:RAMP1 1:0.25, individual replicates, read-out: potency (converted))?
A: 11.1 µM and 9.42 µM and 15.2 µM

Reference: publication PMC10165273, “Itch receptor MRGPRX4 interacts with the receptor activity–modifying proteins” (The Journal of Biological Chemistry, 2023)
